25 molecules from US10752640B2, “Compounds active towards bromodomains” (NUEVOLUTION A/S, priority 2014, dated 2020) can be followed below.

Some results are limits rather than exact numbers.

The target in the test is BRD4 protein (Homo sapiens, UniProt O60885). The test is described as follows: FRET assay, half maximal inhibitory concentration (IC50). The class given is binding. As to conditions: BRD4 protein 50 nM, Biotin-H4KAc4 peptide 12.5 nM; List of Classification. The method, then:
The compounds were biologically evaluated by determining the half maximal inhibitory concentration (IC50) by FRET assay. The IC50 is a measure of the effectiveness of a substance in inhibiting a specific biological or biochemical function.
For IC50 determinations, dose-response curves were generated, using a top concentration of 50 μM compound in 12.5% DMSO, followed by 10-fold dilutions in 12.5% DMSO. The composition of the reaction buffer was 50 mM HEPES, pH 7.5; 100 mM NaCl, 0.05% CHAPS.
The reaction was run in a final volume of 25 μl. The BRD4 protein (16.5 μl) was added to wells of 384w white Optiplates (Perkin Elmer) (50 nM final concentration) and 1 μl of compound dilution of DMSO control. Incubation time was 30 minutes at room temperature. In the next step, 2.5 μl Biotin-H4KAc4 peptide (Millipore 13-379) was added to the wells (final concentration was 12.5 nM), and the plates were incubated for 30 minutes at room temperature. Detection was performed by addition of 5 μl of a mix of mAb GST-XL665 (Cisbio 61GSTXLB) (10 nM final concentration) and Streptavidin Cryptate (Cisbio 610SAKLB) (2.4 nM final conc.) in reaction buffer with 0.4M KF and 0.05% BSA). The plates were incubated for one hour prior to reading on an Envision reader (Perkin Elmer)
Data was analyzed using GraphPad Prism, and IC50 data was obtained using non-linear regression curve fit using log(inhibitor) vs response (variable slope). All compounds were considered active although classified (according to the half maximal inhibitory concentration (IC50) by FRET assay) as follows: […]
With `Cc1cc(O)nc2ccc(NC(=O)c3cc(CN4CCNCC4)ccc3N3CCCC3)cc12` [Compound-2, N-(2-hydroxy-4-methylquinolin-6-yl)-5-(piperazin-1-ylmethyl)-2-(pyrrolidin-1-yl)benzamide], the IC50 is less than 200 nM.
Consider `Cc1cc(O)nc2ccc(NC(=O)c3cc(CN4CCOCC4)ccc3N3CCCC3)cc12` [Compound-3, N-(2-hydroxy-4-methylquinolin-6-yl)-5-(morpholinomethyl)-2-(pyrrolidin-1-yl)benzamide], for which the IC50 is less than 200 nM.
On to `CC(=O)N1CCN(Cc2ccc(N3CCCC3)c(C(=O)Nc3ccc4nc(O)cc(C)c4c3)c2)CC1` [Compound-4, 5-[(4-acetylpiperazin-1-yl)methyl]-N-(2-hydroxy-4-methyl-6-quinolyl)-2-pyrrolidin-1-yl-benzamide], for which the IC50 was less than 200 nM.
For `Cc1cc(O)nc2ccc(NC(=O)c3cc(S(=O)(=O)N4CCN(C)CC4)ccc3N3CCOCC3)cc12` [Compound-5, N-(2-hydroxy-4-methylquinolin-6-yl)-5-(4-methylpiperazin-1-ylsulfonyl)-2-morpholino benzamide], the IC50 was less than 200 nM.
`Cc1cc(O)nc2ccc(NC(=O)c3cc(S(=O)(=O)N4CCC(N(C)C)C4)ccc3N3CCOCC3)cc12` (stereo not shown) [Compound-6, 5-[3-(dimethylamino)pyrrolidin-1-yl]sulfonyl-N-(2-hydroxy-4-methyl-6-quinolyl)-2-morpholino-benzamide] came in with an IC50 of less than 200 nM.
The result for `Cc1cc(O)nc2ccc(NC(=O)c3cc(S(=O)(=O)N4CC(N(C)C)C4)ccc3N3CCOCC3)cc12` [Compound-7, 5-[3-(dimethylamino)azetidin-1-yl]sulfonyl-N-(2-hydroxy-4-methyl-6-quinolyl)-2-morpholino-benzamide] reads less than 200 nM; that for `Cc1cc(O)nc2ccc(NC(=O)c3cc(S(=O)(=O)N4CC(N)C4)ccc3N3CCOCC3)cc12` [Compound-8, 1-(3-(2-hydroxy-4-methylquinolin-6-ylcarbamoyl)-4-morpholinophenylsulfonyl) azetidin-3-aminium 2,2,2-trifluoroacetate], less than 200 nM.
Turning to `Cc1cc(O)nc2ccc(NC(=O)c3cc(C(=O)N(C)C)ccc3N3CCOCC3)cc12` [Compound-9, N3-(2-hydroxy-4-methyl-6-quinolyl)-N1,N1-dimethyl-4-morpholino-benzene-1,3-dicarboxamide], the IC50 is less than 200 nM.
The value for `Cc1cc(O)nc2ccc(NC(=O)c3cc(C(=O)N4CCN(C)CC4)ccc3N3CCOCC3)cc12` [Compound-10, N-(2-hydroxy-4-methyl-6-quinolyl)-5-(4-methylpiperazine-1-carbonyl)-2-morpholino-benzamide] was less than 200 nM; that for `Cc1cc(O)nc2ccc(NC(=O)c3cc(C(=O)N4CCOCC4)ccc3N3CCOCC3)cc12` [Compound-11, N-(2-hydroxy-4-methylquinolin-6-yl)-5-(morpholine-4-carbonyl)-2-morpholinobenzamide] was 200 to 500 nM; that for `Cc1cc(O)nc2ccc(NC(=O)c3cc(C(N)=O)ccc3N3CCOCC3)cc12` [Compound-12, N3-(2-hydroxy-4-methyl-6-quinolyl)-4-morpholino-benzene-1,3-dicarboxamide] was 200 to 500 nM.
The result for `COCc1ccc(N2CCCC2)c(C(=O)Nc2ccc3nc(O)cc(C)c3c2)c1` [Compound-13, N-(2-hydroxy-4-methylquinlin-6-yl)-5-(methoxymethyl)-2-(pyrrolidin-1-yl) benzamide] reads less than 200 nM.
As to `Cc1cc(O)nc2ccc(NC(=O)c3cc(CO)ccc3N3CCCC3)cc12` [Compound-14, N-(2-hydroxy-4-methylquinlin-6-yl)-5-(hydroxymethyl)-2-(pyrrolidin-1-yl) benzamide], the IC50 was 200 to 500 nM.
The result for `Cc1cc(O)nc2ccc(NC(=O)c3cc(S(=O)(=O)N(C)C)ccc3N3CCN(C)CC3)cc12` [Compound-15, 5-(N, N-dimethylsulfamoyl)-N-(2-hydroxy-4-methylquinolin-6-yl)-2-(4-methylpiperazin-1-yl) benzamide] reads less than 200 nM.
The result for `Cc1cc(O)nc2ccc(NC(=O)c3cc(S(=O)(=O)N(C)C)ccc3N3CCC(N(C)C)C3)cc12` (stereo not shown) [Compound-16, 2-[3-(dimethylamino)pyrrolidin-1-yl]-5-(dimethylsulfamoyl)-N-(2-hydroxy-4-methyl-6-quinolyl)benzamide] reads 200 to 500 nM.
The value for `Cc1cc(O)nc2ccc(NC(=O)c3cc(S(=O)(=O)N(C)C)ccc3N3CCC(O)C3)cc12` (stereo not shown) [Compound-17, 5-(dimethylsulfamoyl)-N-(2-hydroxy-4-methyl-6-quinolyl)-2-(3-hydroxypyrrolidin-1-yl)benzamide] was less than 200 nM; that for `Cc1cc(O)nc2ccc(NC(=O)c3cc(S(=O)(=O)N(C)C)ccc3NCCN(C)C)cc12` [Compound-18, 2-(2-dimethylaminoethylamino)-5-(dimethylsulfamoyl)-N-(2-hydroxy-4-methyl-6-quinolyl)benzamide] was greater than 10000 nM; that for `Cc1cc(O)nc2ccc(NC(=O)c3cc(S(=O)(=O)N(C)C)ccc3NCCO)cc12` [Compound-19, 5-(dimethylsulfamoyl)-2-(2-hydroxyethylamino)-N-(2-hydroxy-4-methyl-6-quinolyl)benzamide] was greater than 10000 nM.
Molecule `Cc1cc(O)nc2ccc(NC(=O)c3cc(S(=O)(=O)N(C)C)ccc3N3CC(N(C)C)C3)cc12` [Compound-20, 2-[3-(dimethylamino)azetidin-1-yl]-5-(dimethylsulfamoyl)-N-(2-hydroxy-4-methyl-6-quinolyl)benzamide] yielded an IC50 of 200 to 500 nM.
The result for `Cc1cc(O)nc2ccc(N(C)C(=O)c3cc(S(=O)(=O)N(C)C)ccc3N3CCN(C)CC3)cc12` [Compound-21, 5-(N, N-dimethylsulfamoyl)-N-(2-hydroxy-4-methylquinolin-6-yl)-N-methyl-2-(4-methylpiperazin-1-yl) benzamide] reads greater than 10000 nM; that for `Cc1cc(O)nc2ccc(N(C)C(=O)c3cc(S(=O)(=O)N4CCOCC4)ccc3N3CCCC3)cc12` [Compound-22, N-(2-hydroxy-4-methylquinolin-6-yl)-N-methyl-5-(morpholinosulfonyl)-2-(pyrrolidin-1-yl) benzamide], greater than 10000 nM; that for `Cc1cc(O)nc2ccc(NC(=O)c3cc([N+](=O)[O-])cnc3N3CCCC3)cc12` [Compound-23, N-(2-hydroxy-4-methyl-6-quinolyl)-5-nitro-2-pyrrolidin-1-yl-pyridine-3-carboxamide], 1000 to 10000 nM.
Take `Cc1cc(O)nc2ccc(NC(=O)c3cc(N)cnc3N3CCCC3)cc12` [Compound-24, 5-amino-N-(2-hydroxy-4-methyl-6-quinolyl)-2-pyrrolidin-1-yl-pyridine-3-carboxamide]: the IC50 was less than 200 nM.
`Cc1cc(O)nc2ccc(NC(=O)c3cc(NCC(N)=O)cnc3N3CCCC3)cc12` [Compound-25, 5-[(2-amino-2-oxo-ethyl)amino]-N-(2-hydroxy-4-methyl-6-quinolyl)-2-pyrrolidin-1-yl-pyridine-3-carboxamide] gave an IC50 of 200 to 500 nM.
Molecule `COCC1CCCN1c1ccc(CN2CCOCC2)cc1C(=O)Nc1ccc2nc(O)cc(C)c2c1` (stereo not shown) [Compound-26, N-(2-hydroxy-4-methylquinolin-6-yl)-2-(2-(methoxymethyl)pyrrolidin-1-yl)-5-(morpholinomethyl) benzamide] showed an IC50 of less than 200 nM.

Broadly, the IC50 is the concentration at which inhibition is half-maximal. Low readings indicate higher potency, high ones lower potency.
